Legend:
Type in all cases: cell-based
[1] = target: T1, PAR2 (HT-29 cells) (Homo sapiens, UniProt P55085); assay: Ca FLIPR TETRA assay, ANTAGONIST mode, activator 8 μM SLIGKV; conditions: HT-29 cells, activator 8 μM SLIGKV; maximal antagonist concentration per Method (A: 0.1, 1 or 2 μM; B: 50 μM)
T1 construct: host or cells: HT-29
T1 sequence (P55085 26-397): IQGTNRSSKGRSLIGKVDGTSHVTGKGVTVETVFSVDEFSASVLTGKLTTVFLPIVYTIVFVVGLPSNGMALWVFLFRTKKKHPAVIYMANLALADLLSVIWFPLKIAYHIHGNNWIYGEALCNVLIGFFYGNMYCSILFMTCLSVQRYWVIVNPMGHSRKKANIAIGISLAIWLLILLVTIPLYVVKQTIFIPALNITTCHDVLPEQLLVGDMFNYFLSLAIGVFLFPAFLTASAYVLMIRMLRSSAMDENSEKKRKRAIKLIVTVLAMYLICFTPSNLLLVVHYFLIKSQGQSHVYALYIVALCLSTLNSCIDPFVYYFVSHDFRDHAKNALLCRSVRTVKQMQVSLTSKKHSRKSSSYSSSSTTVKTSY
Outline: (§1)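 Antagonist mode, HT-29: cells O/N 37 °C, 1% FBS; calcium 5 dye 45 min 37 °C + 15 min RT; cpd (DMSO, HBSS-diluted) 30 min RT; activator at final conc. (8 μM SLIGKV / 1 U/mL thrombin / 3.1 U/mL trypsin / 0.6 μM UTP); FLIPR Tetra Ca2+ read.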

[2] = target: T1, PAR2 (HT-29 cells); assay: Ca FLIPR TETRA assay, ANTAGONIST mode, activator 3.1 U/mL trypsin; conditions: for IC50: HT-29 cells, activator 3.1 U/mL trypsin, maximal antagonist concentration per Method (A: 0.1, 1 or 2 μM; B: 50 μM)
Outline: as §1

[3] = test system: Thrombin-stimulated Ca2+ response in HT-29 cells; assay: Ca FLIPR TETRA assay, ANTAGONIST mode, activator 1 U/mL Thrombin; conditions: Homo sapiens; HT-29 cells, activator 1 U/mL Thrombin
Outline: as §1

[4] = test system: UTP-stimulated Ca2+ response in HT-29 cells; assay: Ca FLIPR TETRA assay, ANTAGONIST mode, activator 0.6 μM UTP; conditions: Homo sapiens; HT-29 cells, activator 0.6 μM UTP
Outline: as §1

An IC50 [1] of 1100 nM, an IC50 [2] of 2300 nM and an IC50 [3] of 12000 nM were found for C[C@H]1CN(C(=O)c2cc3nc(-c4ccc(F)cc4)cc(C4(C)CC4)c3o2)CCN1C(=O)C1(O)CC1 [Example I-117] in this work. The IC50 [4] was 7700 nM.

An IC50 [1] of 600 nM, an IC50 [2] of 780 nM and an IC50 [3] of 9800 nM were found for C[C@H]1CN(C(=O)c2cc3nc(-c4ccc(F)cc4)cc(C4(C)CC4)c3o2)CCN1C(=O)C1(C)CC1 [Example I-118] in this work. It also gave an IC50 [4] of 6100 nM.

An IC50 [1] of 620 nM, an IC50 [2] of 560 nM and an IC50 [3] of 1400 nM were found for C[C@H]1CN(C(=O)c2cc3nc(-c4ccc(F)cc4)cc(C4(C)CC4)c3o2)CCN1C(=O)C1(C#N)CC1 [Example I-119] in this work. For the same compound, the IC50 [4] was 1600 nM.

An IC50 [1] of 360 nM, an IC50 [2] of 1300 nM and an IC50 [3] of 13000 nM were found for C[C@H]1CN(C(=O)c2cc3nc(-c4ccc(F)cc4)cc(C4(C)CC4)c3o2)CCN1C(=O)C1CCOCC1 [Example I-120] in this work. The IC50 [4] was 13000 nM.

An IC50 [1] of 1100 nM, an IC50 [2] of 1800 nM and an IC50 [3] of 5500 nM were found for C[C@H]1CN(C(=O)c2cc3nc(-c4ccc(F)cc4)cc(C4(C)CC4)c3o2)CCN1C(=O)C1(O)CCOCC1 [Example I-121] in this work. It also gave an IC50 [4] of 6300 nM.

An IC50 [1] of 1000 nM, an IC50 [2] of 330 nM and an IC50 [3] of 1900 nM were found for C[C@H]1CN(C(=O)c2cc3nc(-c4ccc(F)cc4)cc(C4(C)CC4)c3o2)CCN1C(=O)c1ccn[nH]1 [Example I-122] in this work. For the same compound, the IC50 [4] was 1600 nM.

An IC50 [1] of 340 nM, an IC50 [2] of 930 nM and an IC50 [3] of 4500 nM were found for Cc1cc(C(=O)N2CCN(C(=O)c3cc4nc(-c5ccc(F)cc5)cc(C5(C)CC5)c4o3)C[C@@H]2C)n(C)n1 [Example I-123] in this work. For the same compound, the IC50 [4] was 4100 nM.

An IC50 [1] of 940 nM, an IC50 [2] of 1900 nM and an IC50 [3] of 24000 nM were found for CC(C)c1nc(-c2ccc(F)cc2)nc2cc(C(=O)N3CCNC(=O)C3(C)C)oc12 [Example I-124] in this work. The IC50 [4] was 23000 nM.

An IC50 [1] of 260 nM, an IC50 [2] of 1900 nM and an IC50 [3] of 32000 nM were found for CC(C)c1nc(-c2ccc(F)cc2)nc2cc(C(=O)N3CCN(C(=O)[C@H](O)CC(C)(C)C)[C@@H](C)C3)oc12 [Example I-125] in this work. The IC50 [4] was 20000 nM.

An IC50 [1] of 110 nM, an IC50 [2] of 67 nM and an IC50 [3] of 13000 nM were found for CC(C)c1nc(-c2ccc(F)cc2)nc2cc(C(=O)N3CCN(C(=O)[C@H](O)CC(C)(C)C)CC3(C)C)oc12 [Example I-126] in this work. For the same compound, the IC50 [4] was 22000 nM.

With CC1(c2nc(-c3ccc(F)cc3)nc3cc(C(=O)N4CCNC(=O)C4(C)C)oc23)CC1 [Example I-127] the IC50 [1] was 740 nM, the “Trypsin, % @ 50” value ([2]; @ 50 (μM)) was 49% @ 50 and the IC50 [3] was over 50000 nM. It also gave an IC50 [4] of over 50000 nM.

An IC50 [1] of 540 nM, an IC50 [2] of 5300 nM and an IC50 [3] of over 50000 nM were found for C[C@H]1CN(C(=O)c2cc3nc(-c4ccc(F)cc4)nc(C4(C)CC4)c3o2)CCN1C(=O)[C@H](O)CC(C)(C)C [Example I-128] in this work. For the same compound, the IC50 [4] was 44000 nM.

An IC50 [1] of 250 nM, an IC50 [2] of 270 nM and an IC50 [3] of over 50000 nM were found for CC(C)(C)C[C@@H](O)C(=O)N1CCN(C(=O)c2cc3nc(-c4ccc(F)cc4)nc(C4(C)CC4)c3o2)C(C)(C)C1 [Example I-129] in this work. For the same compound, the IC50 [4] was over 50000 nM.

An IC50 [1] of 2100 nM, an IC50 [2] of 2600 nM and an IC50 [3] of over 35000 nM were found for CC(C)c1cc(-c2ccc(F)cc2)nc2sc(C(=O)N3CCN(C(=O)[C@H](O)CC(C)(C)C)[C@@H](C)C3)nc12 [Example I-130] in this work. For the same compound, the IC50 [4] was 30000 nM.

An IC50 [1] of 66 nM, an IC50 [2] of 68 nM and an IC50 [3] of 19000 nM were found for CC(C)c1cc(-c2ccc(F)cc2)nc2sc(C(=O)N3CCNC(=O)C3(C)C)nc12 [Example I-131] in this work. For the same compound, the IC50 [4] was 12000 nM.

An IC50 [1] of 6.4 nM, an IC50 [2] of 9 nM and an IC50 [3] of over 50000 nM were found for CC(C)c1cc(-c2ccc(F)cc2)nc2sc(C(=O)N3CCN(C(=O)[C@H](O)CC(C)(C)C)CC3(C)C)nc12 [Example I-132] in this work. The IC50 [4] was over 50000 nM.

An IC50 [1] of 5900 nM, an IC50 [2] of 7500 nM and an IC50 [3] of 20000 nM were found for CC(C)c1cc(-c2ccc(F)cc2)nc2oc(C(=O)N3CCNC(=O)C3(C)C)nc12 [Example I-133] in this work. It also gave an IC50 [4] of 20000 nM.

An IC50 [1] of 0.6 nM, an IC50 [2] of 0.9 nM and an IC50 [3] of over 1000 nM were found for CC(C)c1cc(-c2ccc(F)cc2)nc2cc(C(=O)N3CCN(C(=O)[C@H]4C[C@](O)(C(F)(F)F)C4)CC3(C)C)oc12 [Example I-134] in this work. It also gave an IC50 [4] of over 1000 nM.

An IC50 [1] of 24 nM, an IC50 [2] of 42 nM and an IC50 [3] of over 1000 nM were found for CC(C)c1cc(-c2ccc(F)cc2)nc2cc(C(=O)N3CCN(C(=O)[C@H]4C[C@@H](O)C4)CC3(C)C)oc12 [Example I-135] in this work. The IC50 [4] was over 1000 nM.
